Source: paper PMC12344264, “Mechanistic, in-silico and in vitro studies with nitrofurans reveal potent leishmanicidal activity and inhibition of trypanothione reductase” (International Journal for Parasitology: Drugs and Drug …, 2025)
Where two headings read alike, the source gives them in different places.

Columns and labels:
[1] = Cytotoxicity in primary splenocytes, alamarBlue, 72 h; assay type: cell-based; conditions: mouse, primary splenocytes from healthy, non-infected mice; 72 h, alamarBlue, uninfected mice; read-out: Splenocytes CC50
Method: (§1) For cytotoxicity tests, several mammalian cell lines were used. […] Primary cell cultures were also used to evaluate cytotoxicity. […] BMDM cells were differentiated for one week with 30 % […] from L929 cell line.
(§2) The in vitro cytotoxicity of the selected nitrofurans was evaluated in HepG2, RAW 264.7 cells, splenocytes and BMDM. In each well of a 96-well microtitre plate, 100 μL containing 10,000 HepG2 or RAW 264.7 cells were incubated for 24h at 37 °C and 5 % CO2 to allow the cells to settle. For primary cells, 100 μL containing 100,000 BMDM or 1,000,000 splenocytes were added to each well. Subsequently, […] of one-half serial dilutions of each compound diluted in DMEM (for HepG2 cells), RPMI medium (for RAW cells), splenocyte medium (for splenocytes) or BMDM medium supplemented with 10 % GM-CSF (for BMDM), were added to each well. The cytotoxic effect of the compounds was measured after 72 h of incubation at 37 °C and 5 % CO2. For this purpose, a 10 % (v/v) of the alamarBlue™ cell viability reagent (Invitrogen, Fisher Scientific International Inc., Pittsburgh, PA, USA) was added, and the reaction was incubated for 4 h at 37 °C and 5 % CO2. Fluorescence was measured using a Varioskan Lux spectrophotometer (ThermoFisher Scientific, Waltham, MA, USA). Positive controls consisting of 0.1 % (v/v) H2O2, and negative controls, consisting of 0.1 % (v/v) DMSO, were also included on each plate.
(§3) All experiments were carried out in triplicate and included at least three technical replicates. […] The SI was calculated from the CC50/EC50 ratio.

[2] = Cytotoxicity, alamarBlue, 72 h; assay type: cell-based; conditions: human, HepG2 cells; 72 h, alamarBlue; read-out: HepG2 cells CC50
Method: as §1, §2, §3

[3] = tested on: L. donovani-iRFP axenic amastigotes; assay: ROS production by axenic amastigotes (DCFH-DA, flow cytometry); assay type: cell-based, Leishmania donovani
Method: To assess ROS production in L. donovani-iRFP, axenic amastigotes were treated with nitrofurans at the concentration equivalent to their EC50 calculated in viability experiments. As positive control of oxidative stress induction, cultures were treated with 0.01 % H2O2 (v/v), whereas 0.03 % (v/v) DMSO was added as negative control. After an incubation period of 3 h at 37 °C, cells were harvested by centrifugation at 3500 rcf for 10 min, washed in phosphate-buffered saline (PBS), centrifuged again and resuspended in PBS. Cells were labeled with 5 μM 2′,7′-dichlorofluorescein diacetate (DCFH-DA, MedChemExpress) for 30 min at 37 °C. Then, cells were centrifuged at 3500 rcf for 5 min, washed, and resuspended in PBS. The cell suspension was stored at 4 °C until the analysis by flow cytometry, which was performed in a CytoFLEX SRT (Beckman Coulter). The experiment was carried out in triplicate and included three technical replicates.

S. typhimurium TA100 = assay: Ames mutagenicity test (Ames 384-ISO Well Test); conditions: for Mutagenic effect TA100-S9: with metabolic activation (S9 mix); for Mutagenic effect TA100: without S9 mix
[4] = tested on: L. donovani-iRFP axenic amastigotes; assay: Antileishmanial effect on axenic amastigotes (iRFP fluorescence viability, 72 h); assay type: cell-based; conditions: Leishmania donovani
Method: (§4) For efficacy studies, L. donovani-iRFP, a genetically modified strain of L. donovani LV9 constitutively expressing the gene encoding the infrared fluorescent protein (iRFP) ([Melcón-Fernández et al., 2023]), was used. This strain was grown as promastigotes in Schneider's insect medium (Sigma-Aldrich, Merck, Darmstadt, Germany) supplemented with 20 % (v/v) foetal bovine serum (FBS) (Gibco, ThermoFisher Scientific, Waltham, MA, USA) and […] antibiotic cocktail (100 U/mL penicillin and 100 μg/mL streptomycin) (Hyclone, ThermoFisher Scientific, Waltham, MA, USA) at 26 °C until mice were infected ([Carballeira et al., 2016]). Axenic and intramacrophage amastigotes were isolated from six-to eight-week-old female Balb/c mice (see below) that had been infected intraperitoneally with 1.5 × 10^9 metacyclic L. donovani-iRFP promastigotes. To obtain axenic amastigotes, bone marrow was extracted from the femur and tibia of 8- to 10-week-old infected mice and passed through a 100 μm cell strainer. After centrifugation at 3500 rcf for 10 min at room temperature, cell suspensions were resuspended in medium containing 15 mM KCl; 136 mM KH2PO4; 10 mM K2HPO4.3H2O; 0.5 mM MgSO4.7H2O; 24 mM NaHCO3; 22 mM glucose; 1 mM glutamine, 1 × RPMI 1640 vitamin mix (Sigma-Aldrich, Merck, Darmstadt, Germany), 10 mM folic acid, 100 mM adenosine, 1 × RPMI amino acid mix (Sigma-Aldrich, Merck, Darmstadt, Germany), 5 mg/mL hemin, 25 mM 2-morpholinoethanesulfonic acid (MES) pH 5.6, supplemented with 10 % FBS (Gibco, ThermoFisher Scientific, Waltham, MA, USA) and antibiotic cocktail, and incubated at 37 °C and 5 % CO2. To obtain intramacrophage amastigotes, spleens from infected Balb/c mice were cut into pieces, ground with 2 mg/mL collagenase D (Merck, Darmstadt, Germany) and passed through a 100 μm cell strainer. The splenocyte-enriched cell suspension containing intramacrophage amastigotes was resuspended in RPMI medium (Gibco, Fisher Scientific International Inc., Pittsburgh, PA, USA) supplemented with 20 % FBS, 1 mM sodium pyruvate, 24 mM NaHCO3, 2 mM L-glutamine, 1 × RPMI vitamins, 25 mM HEPES pH 7.2 and antibiotic cocktail ([Ashok et al., 2016]).
(§5) The antileishmanial effect of the nitrofurans selected in this study was tested both in vitro on axenic L. donovani-iRFP amastigotes and ex vivo on intramacrophage amastigotes according to previously published methods ([Melcón-Fernández et al., 2023], [2024]; [Andrés-Rodríguez et al., 2024]). Assays were performed in a final volume of […] containing 20,000 axenic amastigotes or a number of L. donovani-iRFP-infected murine splenocytes representing 150,000 relative fluorescence units (RFU), in each well of a black 384-well microtiter plate with optical bottom. In addition, 40 μL of one-half serial dilutions of each compound in amastigotes culture medium (for axenic amastigotes) or in supplemented RPMI medium (for intramacrophage amastigotes) were added to each well. Positive (amphotericin B at a final concentration of 18 μM) and negative (0.1 % v/v DMSO) controls were included on each plate. The plates were incubated at 37 °C and 5 % CO2 for a maximum of 72 h. Fluorescence emitted by viable L. donovani-iRFP was measured on an Odyssey infrared imaging system (Li-Cor, NE, USA).
as §3

[5] = tested on: L. donovani-iRFP intramacrophage amastigotes; assay: Ex vivo antileishmanial effect on intramacrophage amastigotes (infected murine splenocytes, iRFP fluorescence, 72 h); assay type: cell-based; conditions: Leishmania donovani, Splenocyte
Method: as §4, §5, §3

[6] = Cytotoxicity in bone marrow-differentiated macrophages, alamarBlue, 72 h; assay type: cell-based; conditions: mouse, bone marrow-differentiated macrophages (BMDM); 72 h, alamarBlue, uninfected mice; read-out: BMDM CC50
Method: as §1, §2, §3

L. donovani TryR = target: T1, L. donovani TryR (Leishmania donovani, UniProt P39050); assay: biochemical; conditions: for Type of inhibition: Lineweaver-Burk double reciprocal plot, varying T[S]2
T1 construct: endogenous in cells; host or cells: L. donovani-iRFP (LV9) axenic amastigotes, crude cell extract
Method: The activity of L. donovani TryR was measured in the presence of different concentrations of nitrofurans according to the protocol previously described ([Melcón-Fernández et al., 2023]). Briefly, 1 × 10^10 L. donovani-iRFP axenic amastigotes were washed twice in PBS and lysed with a solution containing 1 mM EDTA, 40 mM HEPES, 50 mM Tris HCl pH 7.5, 2 % (v/v) Triton X-100 and Pierce™ Protease Inhibitors Mini Tablets (ThermoFisher Scientific, Waltham, MA, USA). Cell extracts were prepared by mechanical disruption of the cells with 0.5 mm diameter glass beads (Merck, Darmstadt, Germany) and the supernatant obtained by centrifugation at 10,000 rcf for 5 min at 4 °C was used to measure TryR activity in 96-well plates. […] Cell extracts diluted in Tris HCl pH 7.5 (0.43 μg of total protein in 50 μL) were added to launch the reaction. The negative control consisted of 2.5 % DMSO, whereas the blank reaction included the TryR assay solution without T [S]2. […] To determine steady-state conditions, enzymatic activity was measured at 412 nm (ε = 14,150 M^−1 cm^−1) for a period of up to 120 min (with 5 min intervals) at 26 °C in a Varioskan Lux spectrophotometer (ThermoFisher Scientific, Waltham, MA, USA). The experiment was carried out in triplicate and included three technical replicates.

[7] = Cytotoxicity, alamarBlue, 72 h; assay type: cell-based, murine; conditions: mouse, RAW 264.7 cells; 72 h, alamarBlue; read-out: RAW 264.7 cells CC50
Method: as §1, §2, §3

Leishmania = tested on: Leishmania; design: method as in Domínguez-Asenjo et al., 2021; conditions: oral administration, spleen and liver; ref Domínguez-Asenjo et al., 2021; cited from earlier work
L. major = tested on: L. major; design: method as in Domínguez-Asenjo et al., 2021; conditions: ref Domínguez-Asenjo et al., 2021; cited from earlier work
[8] = compound at its axenic EC50, 3 h
[9] = positive control 0.01 % (v/v), 3 h

T1 sequence (P39050 whole entry): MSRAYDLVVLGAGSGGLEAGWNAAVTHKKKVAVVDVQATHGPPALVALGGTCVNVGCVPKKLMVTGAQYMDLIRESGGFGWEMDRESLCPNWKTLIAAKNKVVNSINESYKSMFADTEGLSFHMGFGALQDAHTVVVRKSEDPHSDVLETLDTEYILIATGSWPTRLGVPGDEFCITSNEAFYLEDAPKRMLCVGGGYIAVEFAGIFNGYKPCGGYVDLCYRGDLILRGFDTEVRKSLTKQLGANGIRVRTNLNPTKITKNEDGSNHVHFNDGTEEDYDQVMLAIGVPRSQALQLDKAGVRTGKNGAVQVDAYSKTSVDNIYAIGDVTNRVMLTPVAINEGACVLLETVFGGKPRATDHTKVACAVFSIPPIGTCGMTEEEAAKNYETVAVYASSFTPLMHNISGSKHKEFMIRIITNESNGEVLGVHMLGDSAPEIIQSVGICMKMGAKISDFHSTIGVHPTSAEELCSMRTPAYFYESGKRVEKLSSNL

In the case of `NC(=O)N/N=C/c1ccc([N+](=O)[O-])o1` [Nitrofurazone], the CC50 at 72 h [1] is reported as 38.9 ± 6.32 µM, the CC50 at 72 h [2] is reported as 65.5 ± 9.67 µM and the “Negative ROS (unstressed population)” value [3, 8] is reported as 44.1%. For the same molecule, the “Positive ROS (stressed population)” value [3, 8] was 55.9%, the “Mutagenic effect TA100-S9” value (S. typhimurium TA100; 0.5 μM) was “+ (0.05)” and the “Mutagenic effect TA100” value (S. typhimurium TA100; 0.5 μM) was “+ (0.001)”. The “Mutagenic effect TA100-S9” value (S. typhimurium TA100; 5.0 μM) was “+ (0.001)”, the “Mutagenic effect TA100” value (S. typhimurium TA100; 5.0 μM) was “+ (0.05)” and the “Mutagenic effect TA100-S9” value (S. typhimurium TA100; 50.0 μM) was “- ^b”. For the same molecule, the “Mutagenic effect TA100” value (S. typhimurium TA100; 50.0 μM) was “- ^b”, the EC50 [4] was 0.49 ± 0.03 µM and the EC50 [5] was 0.49 ± 0.11 µM. The CC50 at 72 h [6] was 40.6 ± 1.97 µM, the Type of inhibition (L. donovani TryR) was “Uncompetitive” and the Ki (L. donovani TryR; T[S]2 25-150 μM, inhibitor 6.25-100 μM, NADPH 0.20 mM, read-out: Ki) was 25.8 ± 4.83 µM. For the same molecule, the CC50 at 72 h [7] was 39.6 ± 7.91 µM.
For `CSCC1CN(/N=C/c2ccc([N+](=O)[O-])o2)C(=O)O1` (stereo not shown) [Nifuratel], the “reduction of parasite load” value (Leishmania) is given as > 70% and the “outcome in cutaneous leishmaniasis model” value (L. major) is given as “complete remission”.
In the case of `OO` [H2O2], the “Negative ROS (unstressed population)” value [3, 9] is reported as 28.5% and the “Positive ROS (stressed population)” value [3, 9] is reported as 71.5%.
For `O=C1CN(/N=C/c2ccc([N+](=O)[O-])o2)C(=O)N1` [Nitrofurantoin], the CC50 at 72 h [1] was 33.2 ± 3.5 µM, the CC50 at 72 h [2] was 32 ± 4.58 µM and the “Negative ROS (unstressed population)” value [3, 8] was 23.9%. The “Positive ROS (stressed population)” value [3, 8] was 76.1 ± 11.6%, the “Positive ROS (stressed population)” value ([3]; compound at its axenic EC50, 3 h, listed as NITROFURANTOIN) was 76.1% and the EC50 [4] was 1.46 ± 0.08 µM. For the same molecule, the EC50 [5] was 2.1 ± 0.26 µM, the CC50 at 72 h [6] was 56.3 ± 9.06 µM and the Ki (L. donovani TryR) was 31.2 ± 4.94 µM. For the same molecule, the Type of inhibition (L. donovani TryR) was “Uncompetitive” and the CC50 at 72 h [7] was 37.2 ± 7.05 µM.
